In the NIST ThermoML archive (doi:10.1021/acs.jced.6b00399) one finds mass density and viscosity data, which are given here for 5 molecules.

In general, mass density refers to the mass of a sample divided by its volume. Usually viscosity stands for the internal friction of a fluid under shear.

Where a name gives a salt, the structure may show the parent alone. Numbers after ± are expanded uncertainties.

The conditions of data set [1]: Liquid; for mass density: 101.3 kPa, Pycnometric method; for viscosity: 298.15 K, 101.33 kPa, Capillary tube (Ostwald / Ubbelohde) method.
A short description of data set [2]: xn = mol fraction of the nth substance listed. Particulars: 101.3 kPa, Liquid, x1 = 0.66; for mass density: Pycnometric method.

For the molecule `CC(=O)OCC(COC(C)=O)OC(C)=O` [glyceryl triethanoate], the mass density in data set [1] (293.15 K) is given as 1158.3 ± 2.5 kg/m3; in data set [1] (303.15 K) it was 1147.3 ± 2.4 kg/m3; in data set [1] (313.15 K) it was 1136.6 ± 2.4 kg/m3; in data set [1] (323.15 K), 1125.7 ± 2.4 kg/m3. Also, the viscosity in data set [1] was 16.36 ± 0.68 mPa·s.

With `CC1(C)OCC(CO)O1` (stereo not given) [2,2-dimethyl-1,3-dioxolane-4-methanol], the mass density in data set [1] (293.15 K) was found to be 1067.8 ± 2.4 kg/m3; in data set [1] (303.15 K) it was 1058.9 ± 2.4 kg/m3; in data set [1] (313.15 K), 1049.9 ± 2.4 kg/m3; in data set [1] (323.15 K), 1040.8 ± 2.4 kg/m3. Also, the viscosity in data set [1] came out at 10.06 ± 0.15 mPa·s.

With `CCOC(=O)CC(CC(=O)OCC)(OC(C)=O)C(=O)OCC` [triethyl acetyl citrate], the mass density in data set [1] (293.15 K) came out at 1142.1 ± 3.4 kg/m3; in data set [1] (303.15 K) it was 1134.1 ± 3.3 kg/m3; in data set [1] (313.15 K), 1124.2 ± 3.3 kg/m3; in data set [1] (323.15 K), 1112.9 ± 3.3 kg/m3. For the same molecule, the viscosity in data set [1] is 46.55 ± 1.2 mPa·s.

As for `OC1COCOC1` [1,3-dioxan-5-ol] + OCC1COCO1, the mass density in data set [2] (293.15 K) is listed as 1215.1 ± 2.8 kg/m3; in data set [2] (303.15 K), 1206.7 ± 2.8 kg/m3; in data set [2] (313.15 K), 1198.2 ± 2.8 kg/m3; in data set [2] (323.15 K), 1189.7 ± 2.8 kg/m3. Further, the viscosity in data set [2] (298.15 K, Capillary tube (Ostwald / Ubbelohde) method) is recorded as 20.05 ± 0.84 mPa·s.

Consider `CCOC(=O)CC(O)(CC(=O)OCC)C(=O)OCC` [triethyl citrate], for which the mass density in data set [1] (293.15 K) was found to be 1137.1 ± 2.6 kg/m3; in data set [1] (303.15 K), 1131.3 ± 2.6 kg/m3; in data set [1] (313.15 K) it was 1122.4 ± 2.6 kg/m3; in data set [1] (323.15 K), 1114 ± 2.5 kg/m3. In addition, the viscosity in data set [1] worked out at 32.1 ± 0.64 mPa·s.
